Data from patent US8298996B2, “Low toxicity shale hydration inhibition agent and method of use” (M-I L.L.C., priority 2007, dated 2012).
Where two headings read alike, the source gives them in different places.

Experiments:
[1] = for 10′ Gel / Viscosity (cps) at 3 rpm / YP: after hot rolled at 150° F., about 10 ppb inhibitor in tap water; for shale inhibiting characteristics: summary of Tables 6-9
Procedure: This test procedure uses pint jars that are filled with one barrel equivalent of tap water and about 10 ppb of a shale inhibitor. Tap water was used as a control sample. […] After stirring the samples for about 30 minutes, the rheologies were measured and then the samples were heat aged overnight at about 150° F. After the samples were cooled the rheologies were measured and recorded. This procedure was carried out for each sample until all of the samples were too thick to measure.

[2] = system: luminescent bacteria; settings: for EC50 (15): reduces light emission by 50% at 15 minutes at 15° C.; for toxicity results: summary of Tables 6-9

Molecule | 10′ Gel ([1]; 50 ppb Bentonite) | Viscosity (cps) at 3 rpm ([1]; 50 ppb Bentonite) | YP ([1]; 50 ppb Bentonite) | 10′ Gel ([1]; 60 ppb Bentonite) | Viscosity (cps) at 3 rpm ([1]; 60 ppb Bentonite) | YP ([1]; 60 ppb Bentonite) | 10′ Gel ([1]; 70 ppb Bentonite) | Viscosity (cps) at 3 rpm ([1]; 70 ppb Bentonite) | YP ([1]; 70 ppb Bentonite) | shale inhibiting characteristics [1] | EC50 (15) [2] | toxicity results [2]
Triethylamine Diethyl Sulfate | 7 | 4 cps | 6 | 9 | 4 cps | 8 | 14 | 8 cps | 45 | good | 100% | good
Triethylamine Dimethyl Sulfate [A (Triethylamine Dimethyl Sulfate)] | 3 | 2 cps | 4 | 4 | 3 cps | 4 | 17 | 12 cps | 48 | good | 92.16% | good
[Cl-].[K+] [Potassium Chloride, reference compound] | 26 | 12 cps | 9 | 63 | 48 cps | 45 | 300 | 143 cps | 136 |  |  | 
